molecular target: full-length human GCN2 enzyme (Homo sapiens (Human), UniProt Q9P2K8); experiment: GCN2 enzyme inhibition, LanthaScreen TR-FRET Kinase Activity assay; type: biochemical; conditions: 10 μM ATP; mean of 1 to 3 replicate assays
Procedure: The inhibitory activity of the Example compounds towards GCN2 enzyme was measured according to the description below, using a LanthaScreen TR-FRET (Time Resolved Fluorescence Resonance Energy Transfer) Kinase Activity assay distributed by ThermoFisher Scientific.
The full-length human GCN2 enzyme (UniProt accession number Q9P2K8) was used for all experiments (Carna Bioscience). The TR-FRET pair was composed of GFP-elF2a and LanthaScreen Terbium-labeled anti-pelF2a (pSer52) Antibody.
Each example compound was dissolved in DMSO (0.15 mM) and dispensed in a 384-well plate by a D300 dispenser (Tecan) to a final concentration range 3000-0.13 nM using the logarithmic dilution mode in 2 replicates. Full inhibition (3000 nM commercial reference inhibitor) and DMSO vehicle control wells were also included on the same plate. All volumes were normalized to the final DMSO concentration of 2% of the reaction volume. Next, 5 μL of H2O was added to each well of the plate.
The enzyme mixture was prepared to obtain the following concentrations: • GCN2—30 nM • unloaded tRNA—0.3 nM • HEPES (pH=7.0)—100 mM • MgCl2—20 mM; MnCl2—10 mM
The mixture was applied by adding 5 μL to each well of the plate. The enzyme and the tested compound were then incubated at room temperature for 20 min while shaking at 450 rpm.
The substrate mixture was prepared to obtain the following concentrations: • GFP-elF2α—240 nM • ATP-30 PM • HEPES (pH=7.0)—50 mM • MgCl2—10 mM • MnCl2—5 mM.
The mixture was applied by adding 5 μL to each well of the plate. Thus, the final concentrations of the 15 μL reaction mixture were as follows: • GCN2—10 nM • unloaded tRNA—0.1 nM • GFP-elF2α—80 nM • ATP-10 μM • HEPES (1 M, pH=7.0)—50 mM • MgCl2—10 mM • MnCl2—5 mM.
The reaction was allowed to proceed at room temperature for 30 min while shaking at 450 rpm.
The antibody mixture was prepared to obtain the following concentrations: • Na2EDTA·2H2O—40 mM, in TR-FRET Dilution Buffer (Life technologies) • Tb-anti-pelF2a antibodies—4 nM.
The mixture was applied by adding 15 μL to each well. The plate was then incubated at room temperature for 60 min while shaking at 450 rpm and then read using Tecan Spark reader using specific TR-FRET filters.
The analysis of the GFP/Tb fluorescence results was conducted with GraphPad Prism to determine IC50 for each of the example compounds using 4-parameter model: log (inhibitor) vs. response-variable slope. IC50 and Ki values were calculated in the usual way. The assay was carried out between 1 and 3 times. The results in the table below are the mean results from replicate assays for the compound in question, where applicable.

Sequence of full-length human GCN2 enzyme (Q9P2K8 whole entry): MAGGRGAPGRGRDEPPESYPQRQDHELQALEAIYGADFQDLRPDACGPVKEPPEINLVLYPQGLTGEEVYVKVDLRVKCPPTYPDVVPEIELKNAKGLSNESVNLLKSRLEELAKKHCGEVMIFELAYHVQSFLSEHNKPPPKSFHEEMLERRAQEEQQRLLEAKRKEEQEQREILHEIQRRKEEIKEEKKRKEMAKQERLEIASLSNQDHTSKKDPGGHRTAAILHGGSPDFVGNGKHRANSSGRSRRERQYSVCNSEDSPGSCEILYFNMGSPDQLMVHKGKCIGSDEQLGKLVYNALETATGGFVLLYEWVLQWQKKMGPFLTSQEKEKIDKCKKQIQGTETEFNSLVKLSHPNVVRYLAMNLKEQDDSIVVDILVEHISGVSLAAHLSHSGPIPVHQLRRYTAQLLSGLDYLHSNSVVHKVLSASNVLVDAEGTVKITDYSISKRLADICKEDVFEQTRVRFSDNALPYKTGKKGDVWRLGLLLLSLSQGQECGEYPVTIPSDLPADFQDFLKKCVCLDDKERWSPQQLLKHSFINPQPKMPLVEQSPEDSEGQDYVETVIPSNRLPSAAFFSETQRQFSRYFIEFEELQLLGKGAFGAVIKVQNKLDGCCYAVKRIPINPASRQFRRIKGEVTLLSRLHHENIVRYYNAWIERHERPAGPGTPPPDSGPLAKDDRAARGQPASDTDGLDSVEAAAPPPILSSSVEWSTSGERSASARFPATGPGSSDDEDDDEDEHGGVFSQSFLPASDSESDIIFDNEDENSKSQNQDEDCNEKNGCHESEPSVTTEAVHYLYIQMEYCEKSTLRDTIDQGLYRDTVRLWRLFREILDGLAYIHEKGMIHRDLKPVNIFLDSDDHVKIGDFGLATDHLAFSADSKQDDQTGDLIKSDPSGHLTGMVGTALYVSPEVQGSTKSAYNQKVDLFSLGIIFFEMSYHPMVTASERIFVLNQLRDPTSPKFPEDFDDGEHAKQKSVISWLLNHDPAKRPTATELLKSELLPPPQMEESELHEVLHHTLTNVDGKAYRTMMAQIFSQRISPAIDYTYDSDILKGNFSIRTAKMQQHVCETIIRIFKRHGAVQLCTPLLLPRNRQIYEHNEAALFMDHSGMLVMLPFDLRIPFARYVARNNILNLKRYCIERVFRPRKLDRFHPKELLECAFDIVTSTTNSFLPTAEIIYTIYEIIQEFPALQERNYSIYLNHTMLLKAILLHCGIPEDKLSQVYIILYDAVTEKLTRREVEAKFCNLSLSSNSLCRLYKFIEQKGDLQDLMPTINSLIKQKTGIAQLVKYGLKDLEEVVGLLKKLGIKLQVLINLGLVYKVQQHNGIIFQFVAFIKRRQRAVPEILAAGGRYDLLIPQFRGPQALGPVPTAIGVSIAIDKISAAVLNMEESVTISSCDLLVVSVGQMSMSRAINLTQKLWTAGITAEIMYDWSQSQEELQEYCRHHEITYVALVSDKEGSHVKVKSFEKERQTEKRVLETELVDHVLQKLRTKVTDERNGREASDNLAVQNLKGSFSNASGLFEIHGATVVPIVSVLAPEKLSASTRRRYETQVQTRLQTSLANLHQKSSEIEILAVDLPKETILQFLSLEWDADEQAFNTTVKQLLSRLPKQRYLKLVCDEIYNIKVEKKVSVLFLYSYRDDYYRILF

Row | Structure (SMILES) | Ki [nM]
1 | COc1cccc(S(=O)(=O)Nc2nccc(C#Cc3cnc4[nH]ncc4c3)c2F)c1F [Example 1, 2-Fluoro-N-[3-fluoro-4-(2-{1H-pyrazolo[3,4-b]pyridin-5-yl}ethynyl)pyridin-2-yl]-3-methoxybenzene-1-sulfonamide] | 172
2 | N#Cc1cccc(S(=O)(=O)Nc2nccc(C#Cc3cnc4[nH]ncc4c3)c2F)c1 [Example 2, 3-Cyano-N-[3-fluoro-4-(2-{1H-pyrazolo[3,4-b]pyridin-5-yl}ethynyl)pyridin-2-yl]benzene-1-sulfonamide] | 107
3 | COc1cccc(S(=O)(=O)Nc2nccc(C#Cc3cnc4[nH]ncc4c3)c2F)c1 [Example 3] | 128
4 | Cc1ncc(Cl)cc1S(=O)(=O)Nc1nccc(C#Cc2cnc3[nH]ncc3c2)c1F [Example 4, 5-Chloro-N-[3-fluoro-4-(2-{1H-pyrazolo[3,4-b]pyridin-5-yl}ethynyl)pyridin-2-yl]-2-methylpyridine-3-sulfonamide] | 2.49
5 | COc1ncc(C(F)(F)F)cc1S(=O)(=O)Nc1nccc(C#Cc2cnc3[nH]ncc3c2)c1F [Example 5, N-[3-Fluoro-4-(2-{1H-pyrazolo[3,4-b]pyridin-5-yl}ethynyl)pyridin-2-yl]-2-methoxy-5-(trifluoromethyl)pyridine-3-sulfonamide] | 5.78
6 | Cc1nc(C)c(S(=O)(=O)Nc2nccc(C#Cc3cnc4[nH]ncc4c3)c2F)s1 [Example 6, N-[3-Fluoro-4-(2-{1H-pyrazolo[3,4-b]pyridin-5-yl}ethynyl)pyridin-2-yl]-2,4-dimethyl-1,3-thiazole-5-sulfonamide] | 29.3
7 | O=S(=O)(Nc1nccc(C#Cc2cnc3[nH]ncc3c2)c1F)c1cncc(Cl)c1 [Example 7, 5-Chloro-N-[3-fluoro-4-(2-{1H-pyrazolo[3,4-b]pyridin-5-yl}ethynyl)pyridin-2-yl]pyridine-3-sulfonamide] | 127
8 | COc1ncccc1S(=O)(=O)Nc1nccc(C#Cc2cnc3[nH]ncc3c2)c1F [Example 8, N-[3-Fluoro-4-(2-{1H-pyrazolo[3,4-b]pyridin-5-yl}ethynyl)pyridin-2-yl]-2-methoxypyridine-3-sulfonamide] | 59.9
9 | COc1ncc(C)cc1S(=O)(=O)Nc1nccc(C#Cc2cnc3[nH]ncc3c2)c1F [Example 9, N-[3-Fluoro-4-(2-{1H-pyrazolo[3,4-b]pyridin-5-yl}ethynyl)pyridin-2-yl]-2-methoxy-5-methyl-pyridine-3-sulfonamide] | 6.6
10 | O=S(=O)(Nc1nccc(C#Cc2cnc3[nH]ncc3c2)c1F)c1cccc2c1OCO2 [Example 10, N-[3-Fluoro-4-(2-{1H-pyrazolo[3,4-b]pyridin-5-yl}ethynyl)pyridin-2-yl]-2H-1,3-benzodioxole-4-sulfonamide] | 209
11 | Cc1cnc(C)c(S(=O)(=O)Nc2nccc(C#Cc3cnc4[nH]ncc4c3)c2F)c1 [Example 11, N-[3-Fluoro-4-(2-{1H-pyrazolo[3,4-b]pyridin-5-yl}ethynyl)pyridin-2-yl]-2,5-dimethylpyridine-3-sulfonamide] | 8.17
12 | COc1ncc(C#N)cc1S(=O)(=O)Nc1nccc(C#Cc2cnc3[nH]ncc3c2)c1F [Example 12, 5-Cyano-N-[3-fluoro-4-(2-{1H-pyrazolo[3,4-b]pyridin-5-yl}ethynyl)pyridin-2-yl]-2-methoxypyridine-3-sulfonamide] | 7.76
13 | Cc1ccc(S(=O)(=O)Nc2nccc(C#Cc3cnc4[nH]ncc4c3)c2F)c(C)n1 [Example 14, N-[3-Fluoro-4-(2-{1H-pyrazolo[3,4-b]pyridin-5-yl}ethynyl)pyridin-2-yl]-2,6-dimethylpyridine-3-sulfonamide] | 17.8
14 | Cc1ncc(F)cc1S(=O)(=O)Nc1nccc(C#Cc2cnc3[nH]ncc3c2)c1F [Example 16, 5-Fluoro-N-[3-fluoro-4-(2-{1H-pyrazolo[3,4-b]pyridin-5-yl}ethynyl)pyridin-2-yl]-2-methylpyridine-3-sulfonamide] | 4.19
15 | CCOc1ncc(Cl)cc1S(=O)(=O)Nc1nccc(C#Cc2cnc3[nH]ncc3c2)c1F [Example 18, 5-Chloro-2-ethoxy-N-[3-fluoro-4-(2-{1H-pyrazolo[3,4-b]pyridin-5-yl}ethynyl)-pyridin-2-yl]pyridine-3-sulfonamide] | 8.83
16 | O=S(=O)(Nc1nccc(C#Cc2cnc3[nH]ncc3c2)c1F)c1ccc(Cl)cc1CO [Example 19] | 65
17 | O=S(=O)(Nc1nccc(C#Cc2cnc3[nH]ncc3c2)c1F)c1cc(Cl)cnc1CCO [Example 20, 5-chloro-N-[3-fluoro-4-(2-{1H-pyrazolo[3,4-b]pyridin-5-yl}ethynyl)pyridin-2-yl]-2-(2-hydroxyethyl)pyridine-3-sulfonamide] | 67

— patent US20250129068A1 (IP2IPO INNOVATIONS LIMITED, priority 2021, published 2025)
